Reference: US8673969B2, “Substituted 4-β-acrylamidopodophyllotoxin congeners as antitumour antibiotics and the process for preparation thereof” (Council of Scientific & Industrial Research, priority 2010, dated 2014)

Key:
A-2780 = assay: SRB assay, ovarian cancer cell line A-2780; assay type: cell-based; conditions: Homo sapiens, A2780, 48 h, read-out: In vitro anticancer activity GI50, Ovarian A-2780
Protocol: (§1) Single cell suspension of the tumour cells grown in tissue culture were made, cells counted and cell count adjusted to 1×10^5 to 5×10^5 cells/ml. Ninety six (96) well plates were seeded with this cell suspension, each well receiving 100 μl of it. The plate was then be incubated at 37° C. temperature in CO2 incubator for 24 hours. Drugs were added at concentrations after 24-hour incubation followed by further incubation for 48 hours. Experiment was terminated by gently layering the cells in the wells with 30% TCA and plates were kept in refrigerator for 1 hour following which they were washed thoroughly with tap water, dried attained with 0.4% SRB in 1% acetic aid and finally, the bound SRB eluted with 10 mM tris. Absorbance was read at 540 nm, in the microtitre-plate reader. Optical density of drug-treated cells was compared with that of control cells and cell inhibition was calculated as percent values. Each compound was tested at 10, 20, 40 and 80 μg/ml in triplicate on human malignant cell lines.

Colo205 = assay: SRB assay, colon cancer cell line Colo205; assay type: cell-based; conditions: Homo sapiens, COLO 205, 48 h, read-out: In vitro anticancer activity GI50, Colon Colo205
Protocol: as §1

DWD = assay: SRB assay, oral cancer cell line DWD; assay type: cell-based; conditions: Homo sapiens, 48 h, read-out: In vitro anticancer activity GI50, Oral DWD
Protocol: as §1

Gurav = assay: SRB assay, oral cancer cell line Gurav; assay type: cell-based; conditions: Homo sapiens, 48 h, read-out: In vitro anticancer activity GI50, Oral Gurav
Protocol: as §1

Hop62 = assay: SRB assay, lung cancer cell line Hop62; assay type: cell-based; conditions: Homo sapiens, HOP-62, 48 h, read-out: In vitro anticancer activity GI50, Lung Hop62
Protocol: as §1

Zr-75-1 = assay: SRB assay, breast cancer cell line Zr-75-1; assay type: cell-based; conditions: Homo sapiens, ZR-75-1, 48 h, read-out: In vitro anticancer activity GI50, Breast Zr-75-1
Protocol: as §1

A-549 = assay: SRB assay, lung cancer cell line A-549; assay type: cell-based; conditions: Homo sapiens, A549, 48 h, read-out: In vitro anticancer activity GI50, Lung A-549
Protocol: as §1

MCF7 = assay: SRB assay, breast cancer cell line MCF7; assay type: cell-based; conditions: Homo sapiens, MCF7, 48 h, read-out: In vitro anticancer activity GI50, Breast MCF7
Protocol: as §1

KB = assay: SRB assay, oral cancer cell line KB; assay type: cell-based; conditions: Homo sapiens, 48 h, read-out: In vitro anticancer activity GI50, Oral KB
Protocol: as §1

Row | SMILES | GI50 (A-2780) [nM] | GI50 (Colo205) [nM] | GI50 (DWD) [nM] | GI50 (Gurav) [nM] | GI50 (Hop62) [nM] | GI50 (Zr-75-1) [nM] | melting point [°C] | GI50 (A-549) [nM] | GI50 (MCF7) [nM] | GI50 (KB) [nM]
1 | COc1cc(/C(=C\c2ccc([N+](=O)[O-])cc2)C(=O)N[C@@H]2c3cc4c(cc3[C@@H](c3cc(OC)c(OC)c(OC)c3)[C@H]3C(=O)OC[C@@H]32)OCO4)cc(OC)c1OC [Compound 3i, 4β-(E)-3-(4-nitrophenyl)-2-(3,4,5-trimethoxyphenyl)acrylamidopodophyllotoxin] | 2600 | 2100 | 2400 | 2100 | 2700 | 2200 | 187 to 190 | – | – | –
2 | COc1cc(/C(=C\c2cccc([N+](=O)[O-])c2)C(=O)N[C@@H]2c3cc4c(cc3[C@@H](c3cc(OC)c(OC)c(OC)c3)[C@H]3C(=O)OC[C@@H]32)OCO4)cc(OC)c1OC [Compound 3j, 4β-(E)-3-(3-nitrophenyl)-2-(3,4,5-trimethoxyphenyl)acrylamido podophyllotoxin] | 2500 | – | < 100 | 2100 | 170 | – | 181 to 184 | 2400 | 2700 | –
3 | COc1cc(/C(=C\c2ccccc2[N+](=O)[O-])C(=O)N[C@@H]2c3cc4c(cc3[C@@H](c3cc(OC)c(OC)c(OC)c3)[C@H]3C(=O)OC[C@@H]32)OCO4)cc(OC)c1OC [Compound 3k, 4β-(E)-3-(2-nitrophenyl)-2-(3,4,5-trimethoxyphenyl)acrylamidopodophyllotoxin] | 2300 | – | – | – | 2700 | 2500 | 197 to 200 | 2500 | – | 2700
4 | COc1ccccc1/C(=C\c1ccc([N+](=O)[O-])cc1)C(=O)N[C@@H]1c2cc3c(cc2[C@@H](c2cc(OC)c(OC)c(OC)c2)[C@H]2C(=O)OC[C@@H]21)OCO3 [Compound 3l, 4β-(E)-2-(2-methoxyphenyl)-3-(4-nitrophenyl)acrylamidopodophyllotoxin] | 2300 | – | 2300 | 2100 | 2000 | 2100 | 181 to 183 | < 100 | 2700 | 2400
5 | COc1ccccc1/C(=C\c1ccccc1[N+](=O)[O-])C(=O)N[C@@H]1c2cc3c(cc2[C@@H](c2cc(OC)c(OC)c(OC)c2)[C@H]2C(=O)OC[C@@H]21)OCO3 [Compound 3m, 4β-(E)-2-(2-methoxyphenyl)-3-(2-nitrophenyl)acrylamidopodophyllotoxin] | 2200 | – | 2300 | 2200 | 2100 | 2200 | 187 to 190 | < 100 | 2800 | 2500
6 | COc1ccc(/C=C(/C(=O)N[C@@H]2c3cc4c(cc3[C@@H](c3cc(OC)c(OC)c(OC)c3)[C@H]3C(=O)OC[C@@H]32)OCO4)c2cc(OC)c(OC)c(OC)c2)cc1 [Compound 3n, 4β-(E)-3-(4-methoxyphenyl)-2-(3,4,5-trimethoxyphenyl)acrylamidopodophyllotoxin] | 2500 | 170 | 2300 | 2200 | – | 2900 | 128 to 130 | – | 2900 | –
7 | COc1cccc(/C=C(/C(=O)N[C@@H]2c3cc4c(cc3[C@@H](c3cc(OC)c(OC)c(OC)c3)[C@H]3C(=O)OC[C@@H]32)OCO4)c2cc(OC)c(OC)c(OC)c2)c1 [Compound 3o, 4β-(E)-3-(3-methoxyphenyl)-2-(3,4,5-trimethoxyphenyl)acrylamidopodophyllotoxin] | < 100 | – | 2200 | 2100 | 180 | 180 | 187 to 190 | < 100 | 2700 | 2100
8 | COc1cc(/C(=C\c2ccc(O)cc2)C(=O)N[C@@H]2c3cc4c(cc3[C@@H](c3cc(OC)c(OC)c(OC)c3)[C@H]3C(=O)OC[C@@H]32)OCO4)cc(OC)c1OC [Compound 3p, 4β-(E)-3-(4-hydroxyphenyl)-2-(3,4,5-trimethoxyphenyl)acrylamidopodophyllotoxin] | – | – | 2700 | 2700 | 2600 | 2700 | 137 to 140 | 2300 | – | 2600
